Data reported in patent US20100197642A1, “SLOW RELEASE MISOPROSTOL FOR OBSTETRIC AND/OR GYNAECOLOGICAL APPLICATIONS” (priority 2007, published 2010).

Legend:
[1] = Pharmacokinetic study of misoprostol acid (MPA) plasma levels after SR oral, sublingual or vaginal misoprostol; format: in vivo, women; conditions: 400 μg
Experimental: A study was performed with healthy women ≧18 years with a viable intrauterine pregnancy of up to 12 weeks (47-83 days) of gestation who had requested termination of pregnancy by vacuum aspiration.
After giving their informed consent, eligible women were allocated randomly to the three treatment groups using computer generated random tables and numbered, sealed, opaque envelopes opened consecutively. […] The SR misoprostol tablets were swallowed with a small amount of water. Women allocated to vaginal misoprostol treatment inserted the tablets intravaginally themselves.
The women were admitted to hospital in the morning after fasting overnight.
The blood samples were immediately cooled in a refrigerator at +6° C. for 30-60 minutes and thereafter centrifuged in a cooled centrifuge for 10 minutes at 3000 rpm. The plasma was then drawn from the blood samples and stored at below −20° C. for further analyses. […]
AUC was calculated according to the trapezoidal method, by dividing the area under the curve into trapezium segments according to the time intervals of blood sampling. […] The AUC720 was calculated by summation of the trapezium segments. Pulse, blood pressure and temperature were measured repeatedly and side-effects such as nausea, abdominal pain, skin rash or diarrhoea were recorded, as well as any analgesics given. […]

[2] = cited from earlier work

Structure (SMILES): CCCCC(C)(O)C/C=C/[C@H]1[C@H](O)CC(=O)[C@@H]1CCCCCCC(=O)OC (mixture of isomers) [misoprostol, (±) methyl 7-[3-(α-hydroxy-2-β-(4(RS)-4-hydroxy-4-methyl-trans-1-octen-1-yl)-oxycyclopent-1α-yl]heptanoate]
- cumulative AUC of MPA over time (FIG. 2) ([1]; sublingual group): did not continue to rise after 6 hours
- cumulative AUC of MPA over time (FIG. 2) ([1]; vaginal group): did not continue to rise after 6 hours
- time at which plasma misoprostol level peaks ([2]; 400 μg oral misoprostol): about 30 minutes
- time after administration with detectable levels of MPA remaining ([2]; vaginal administration): 6 h
- time to maximum plasma level ([2]; vaginal administration): 70 to 80 min
